# Data taken from patent publication US12338283B2, “Methods for targeting the immune checkpoint PD1 pathway for treating pulmonary fibrosis” (CEDARS-SINAI MEDICAL CENTER, priority 2017, dated 2025).
# B1: Interferon gamma-1b: interferon-gamma replenishment tested in IPF trials (protein, UniProt P01579 24-161, looked up)
# Interferon gamma: QDPYVKEAENLKKYFNAGHSDVADNGTLFLGILKNWKEESDRKIMQSQIVSFYFKLFKNFKDDQSIQKSVETIKEDMNVKFFNSNKKKRDDFEKLTNYSVTDLNVQRKAIHELIQVMAELSPAAKTGKRKRSQMLFRG
# Assays:
# [1] = tested on: patients with IPF; settings: cited from earlier work
# [2] = tested on: CD274+ IPF fibroblasts; experiment: Matrigel invasion assay of flow-sorted IPF lung fibroblasts; format: cell-based, human
# Method: (§1) CD274+ and CD274-fibroblast were flow sorted from fibroblasts of healthy and IPF lungs. The cells were plated onto transwells for migration assay, with and without anti-CD274 antibody (α-CD274) and control IgG. Migratory fibroblasts were fixed, stained, and photographed. […] CD274+ and CD274− fibroblast were flow sorted from fibroblasts of healthy and IPF lungs. The cells were plated onto matrigel chamber for invasion assay, with and without anti-CD274 antibody (α-CD274) and control IgG. Invasive fibroblasts were fixed, stained, and photographed.
# FIG. 10A is a schematic representation of an in vitro invasion assay: Lung fibroblasts were seeded in the upper part of transwells. Cells attached to the bottom of Matrigel-coated membrane after 24 h were considered invasive fibroblasts. Cells that remained on top of Matrigel-coated membrane were considered non-invasive fibroblasts. […]
# FIG. 19A-J show CD274 and FAK signaling are required for lung fibroblast invasion. […] FIG. 19B and FIG. 19C are graphs that show cell migration index or invasion index, which was calculated as the number of cells attached to the bottom of control or Matrigel-coated membrane after 24 h, normalized to respective CD274^low lung fibroblasts. […]
# (§2) CD274+ and CD274− fibroblasts from IPF and healthy lungs were flow sorted and analyzed with an invasion assay.
# [3] = tested on: CD274+ fibroblasts; experiment: Transwell migration assay of flow-sorted IPF lung fibroblasts; format: cell-based, human; settings: CD274^low and CD274^high IPF fibroblasts, 24 h, vs vehicle DMSO (FIG. 19A-C)
# Method: as §1
# FIG. 19A-J show CD274 and FAK signaling are required for lung fibroblast invasion. In the experimental results shown in FIG. 19A-FIG. 19C, equal number of cells were seeded in the upper part of transwells and cell migration and invasion assays were performed (n=3 per group). […] Scale bar: 1 mm. FIG. 19B and FIG. 19C are graphs that show cell migration index or invasion index, which was calculated as the number of cells attached to the bottom of control or Matrigel-coated membrane after 24 h, normalized to respective CD274^low lung fibroblasts. […] GAPDH served as equal loading control. FIG. 19E, FIG. 19G, and FIG. 19I show hydroxyproline contents in lung tissues. […]
# as §2
# [4] = tested on: NSG mice injected with CD274^high IPF fibroblasts; experiment: Humanized SCID IPF model: lung fibrosis (hydroxyproline, Masson trichrome) in NSG mice injected with IPF fibroblasts; format: in vivo, mouse; settings: mice receiving CD274^high lung fibroblasts, compared with vehicle (CMC-Na) treated mice (FIG. 19E, 19F)
# Method: FIG. 19A-J show CD274 and FAK signaling are required for lung fibroblast invasion. In the experimental results shown in FIG. 19A-FIG. 19C, equal number of cells were seeded in the upper part of transwells and cell migration and invasion assays were performed (n=3 per group). […] Scale bar: 1 mm. FIG. 19B and FIG. 19C are graphs that show cell migration index or invasion index, which was calculated as the number of cells attached to the bottom of control or Matrigel-coated membrane after 24 h, normalized to respective CD274^low lung fibroblasts. […] GAPDH served as equal loading control. FIG. 19E, FIG. 19G, and FIG. 19I show hydroxyproline contents in lung tissues. FIG. 19F, FIG. 19H and FIG. 19J show Masson trichrome staining of collagen on lung sections from NSG mice injected with CD274^low and CD274^high IPF fibroblasts treated with VS4718, vehicle control CMC-Na, or from NSG mice receiving gRNA-CTL or CD274 KO lung fibroblasts (n=6 per group), or from NSG mice injected with CD274^high IPF fibroblasts treated with Q-CD274 (n=12 per group) or isotype control IgG (n=12 for D0-35 IgG, n=11 for D35-63 IgG). Scale bars (FIG. 19F, FIG. 19H): 1 mm (top panel), 100 μm (middle and lower panels). Throughout, data are mean±sem. *P<0.05; **P<0.01 by student's t test (FIG. 19B, FIG. 19C, FIG. 19E, FIG. 19G).
# The effect of the inhibition is assessed with hyroxyproline assay. […]
molecule,measurement,setting,value
COC(=O)c1ccc2c(c1)NC(=O)/C2=C(\Nc1ccc(N(C)C(=O)CN2CCN(C)CC2)cc1)c1ccccc1 [nintedanib],improve lung function or reduce fibrosis,[1],neither
COc1ccccc1Oc1c(NS(=O)(=O)c2ccc(C(C)(C)C)cc2)nc(-c2ncccn2)nc1OCCO [Bosentan],clinical benefit in patients with IPF,[1],not better than placebo
CNC(=O)c1ccccc1Nc1cc(Nc2ccc(N3CCOCC3)cc2OC)ncc1C(F)(F)F [VS4718],cell invasion of lung fibroblasts,"[2]; CD274^low and CD274^high IPF fibroblasts, Matrigel-coated membrane, 24 h, vs vehicle DMSO (FIG. 19A-C)",significantly blocked
same,invasiveness / invasive phenotype of CD274+ fibroblasts,"[2]; flow-sorted CD274+ IPF fibroblasts, matrigel chamber",reduced invasiveness
same,cell migration of lung fibroblasts,[3],significantly blocked
same,development of fibrosis,[4],prevented the development of fibrosis
CC(=O)N[C@@H](CS)C(=O)O [acetylcysteine],clinical benefit in patients with IPF,[1],some benefits
Cc1ccc(=O)n(-c2ccccc2)c1 [Pirfenidone],disease progression,[1],reduces disease progression
same,improve lung function or reduce fibrosis,[1],neither
B1,survival for patients with IPF,[1],did not improve survival
